Molecules are shown by their SMILES.

System in one data set: not listed separately
Briefly: Stability (survival rate) in acidic aqueous solution by HPLC. The note with it: pH 3, 80° C., 7 hours, comparative compound = α-L-aspartyl-D-α-aminobutyric acid (S)-α-ethylbenzylamide.
Experimental: With respect to stability in an acidic aqueous solution, the percentage (survival rate) of the compound still surviving in an acidic aqueous solution having a pH of 3 at 80° C. for 7 hours by HPLC was measured.
With `CC[C@H](NC(=O)C1(NC(=O)[C@@H](N)CC(=O)O)CCCCC1)c1ccccc1` [α-L-aspartyl-α-aminocyclohexanecarboxylic acid (S)-α-ethylbe], the “stability (survival rate in an acidic aqueous solution) relative to comparative compound” value is on record as “about 9 times that of the comparative compound”.

`CC[C@H](NC(=O)C1(NC(=O)[C@@H](N)CC(=O)O)CCCC1)c1ccccc1` [α-L-aspartyl-α-aminocyclopentanecarboxylic acid (S)-α-ethylb]: the “stability (survival rate in an acidic aqueous solution) relative to comparative compound” value was “about 10 times that of the comparative compound”.

For the molecule `CC[C@H](NC(=O)C1(NC(=O)[C@@H](N)CC(=O)O)CCCC1)c1ccccc1` [Example 6, α-L-aspartyl-α-aminocyclopentanecarboxylic acid (S)-α-ethylbenzylamide], the “stability (survival rate in an acidic aqueous solution) relative to comparative compound” value was “about 10 times that of the comparative”.

Regarding `CC[C@H](NC(=O)C1(NC(=O)[C@@H](N)CC(=O)O)CCCCC1)c1ccccc1` [Example 7, α-L-aspartyl-α-aminocyclohexanecarboxylic acid (S)-α-ethylbenzylamide], the “stability (survival rate in an acidic aqueous solution) relative to comparative compound” value is listed as “about 9 times that of the comparative”.

Another data set relates to ICR male mice.
Experiment: not given
The note with it: oral administration of 2.0 g/kg once.
As for `CC[C@H](NC(=O)C1(NC(=O)[C@@H](N)CC(=O)O)CCCCC1)c1ccccc1` [α-L-aspartyl-α-aminocyclohexanecarboxylic acid (S)-α-ethylbe], the toxicity result is given as “no problematic toxicity”.

With `COC[C@H](NC(=O)C(NC(=O)[C@@H](N)CC(=O)O)c1ccco1)c1ccccc1` (mixture of isomers) [α-L-aspartyl-DL-furylglycine (R)-α-methoxymethylbenzylamide], the toxicity result is “no problematic toxicity”.

For the molecule `CC[C@H](NC(=O)C(NC(=O)[C@@H](N)CC(=O)O)c1ccco1)c1ccccc1` (mixture of isomers), the toxicity result is given as “no problematic toxicity”.

Take `COC[C@H](NC(=O)[C@H](NC(=O)[C@@H](N)CC(=O)O)C(C)C)c1ccccc1` [α-L-aspartyl-D-valine (R)-α-methoxymethylbenzylamide]: the toxicity entry was “no problematic toxicity”.

In the case of `CC[C@H](NC(=O)[C@H](NC(=O)[C@@H](N)CC(=O)O)[C@H](C)O)c1ccccc1` [Example 1, α-L-aspartyl-D-threonine (S)-α-ethylbenzylamide], the toxicity entry is recorded as “no problematic toxicity”.

System in the next data set: not listed separately
Briefly: Sensory evaluation of sweetness potency relative to sugar. The note with it: Table 1; based on an aqueous solution of 4% sucrose having a sweetness potency of 1 (one).
For `CCC(NC(=O)C(CC(C)C)NC(=O)C(N)CC(=O)O)c1ccccc1` [D-Leu (S) Et Ph], the “Sweetness Potency” value is 100.

With `CC[C@@H](NC(=O)[C@@H](N)CC(=O)O)C(=O)N[C@@H](COC)c1ccccc1` [Example 16, α-L-aspartyl-D-α-aminobutyric acid (R)-α-methoxymethylbenzylamide], the “Sweetness Potency” value is 1200.

For `CCOC[C@H](NC(=O)[C@H](NC(=O)[C@@H](N)CC(=O)O)C(C)C)c1ccccc1` [Example 15, α-L-aspartyl-D-valine (R)-α-ethoxymethylbenzylamide], the “Sweetness Potency” value was 500.

In the case of `CC[C@H](NC(=O)C(C)(CC)NC(=O)[C@@H](N)CC(=O)O)c1ccccc1` (mixture of isomers) [Example 10, α-L-aspartyl-DL-isovaline (S)-α-ethylbenzylamide], the “Sweetness Potency” value is given as 100.

For `COC[C@H](NC(=O)[C@H](NC(=O)[C@@H](N)CC(=O)O)[C@H](C)O)c1ccccc1` [Example 2, α-L-aspartyl-D-threonine (R)-α-methoxymethylbenzylamide], the “Sweetness Potency” value is on record as 500.

Turning to `CCC(NC(=O)C(NC(=O)C(N)CC(=O)O)C(C)OC)c1ccccc1` [D-Thr(Me) (S) Et Ph], the “Sweetness Potency” value was found to be 150.

As to `COC[C@H](NC(=O)[C@H](NC(=O)[C@@H](N)CC(=O)O)C(C)C)c1ccccc1` [Example 11, α-L-aspartyl-D-valine (R)-α-methoxymethylbenzylamide], the “Sweetness Potency” value is 1300.

For the molecule `COC[C@H](NC(=O)[C@H](NC(=O)[C@@H](N)CC(=O)O)c1ccccc1)c1ccccc1` [Example 12, α-L-aspartyl-D-phenylglycine (R)-α-methoxymethylbenzylamide], the “Sweetness Potency” value was determined as 500.

Regarding `CC[C@H](NC(=O)C(NC(=O)[C@@H](N)CC(=O)O)c1ccco1)c1ccccc1` (mixture of isomers) [Example 4, α-L-aspartyl-DL-furylglycine (S)-α-ethylbenzylamide], the “Sweetness Potency” value is 1200.

As for `COC[C@@H](NC(=O)[C@H](NC(=O)[C@@H](N)CC(=O)O)C(C)C)C(C)C` [Example 14, α-L-aspartyl-D-valine (S)-α-methoxymethyl-β-methylpropylamide], the “Sweetness Potency” value amounted to 40.

As to `COC[C@H](NC(=O)C1(NC(=O)[C@@H](N)CC(=O)O)CCCCC1)c1ccccc1` [Example 13, α-L-aspartyl-α-aminocyclohexanecarboxylic acid (R)-α-methoxymethylbenzylamide], the “Sweetness Potency” value was found to be 250.

`CC[C@H](NC(=O)C1(NC(=O)[C@@H](N)CC(=O)O)CCCC1)c1ccccc1` [Example 6, α-L-aspartyl-α-aminocyclopentanecarboxylic acid (S)-α-ethylbenzylamide]: the “Sweetness Potency” value amounted to 1000.

As to `COC[C@H](NC(=O)C(NC(=O)[C@@H](N)CC(=O)O)c1ccco1)c1ccccc1` (mixture of isomers) [Example 5, α-L-aspartyl-DL-furylglycine (R)-α-methoxymethylbenzylamide], the “Sweetness Potency” value turned out to be 1200.

As for `CC[C@H](NC(=O)[C@H](NC(=O)[C@@H](N)CC(=O)O)[C@H](C)CC)c1ccccc1` [Example 3, α-L-aspartyl-D-isoleucine (S)-α-ethylbenzylamide], the “Sweetness Potency” value is reported as 500.

`CCC(NC(=O)C(NC(=O)C(N)CC(=O)O)C(C)CC)c1ccccc1` [D-allo-Ile (S) Et Ph]: the “Sweetness Potency” value amounted to 90.

`CC[C@H](NC(=O)C(CC)(CC)NC(=O)[C@@H](N)CC(=O)O)c1ccccc1` [Example 9, α-L-aspartyl-α,α-diethylglycine (S)-α-ethylbenzylamide]: the “Sweetness Potency” value is on record as 200.

For the molecule `COC[C@H](NC(=O)[C@@H](C)NC(=O)[C@@H](N)CC(=O)O)c1ccccc1` [Example 18, α-L-aspartyl-D-alanine (R)-α-methoxymethylbenzylamide], the “Sweetness Potency” value came to 300.

With `CC[C@H](NC(=O)C1(NC(=O)[C@@H](N)CC(=O)O)CCCCC1)c1ccccc1` [Example 7, α-L-aspartyl-α-aminocyclohexanecarboxylic acid (S)-α-ethylbenzylamide], the “Sweetness Potency” value was 1000.

Take `CC[C@@H](C)[C@@H](NC(=O)[C@@H](N)CC(=O)O)C(=O)N[C@@H](COC)c1ccccc1` [Example 17, α-L-aspartyl-D-isoleucine (R)-α-methoxymethylbenzylamide]: the “Sweetness Potency” value is listed as 500.

`COC[C@@H](NC(=O)[C@H](NC(=O)[C@@H](N)CC(=O)O)C(C)C)c1ccccc1` [Example 20, α-L-aspartyl-D-valine (S)-α-methoxymethylbenzylamide]: the “Sweetness Potency” value is on record as less than 20.

For the molecule `COC[C@H](NC(=O)[C@H](NC(=O)[C@@H](N)CC(=O)O)C(C)C)C(C)C` [Example 19, α-L-aspartyl-D-valine (R)-α-methoxymethyl-β-methylpropylamide], the “Sweetness Potency” value was 30.

Turning to `CC[C@H](NC(=O)[C@H](NC(=O)[C@@H](N)CC(=O)O)[C@H](C)O)c1ccccc1` [Example 1, α-L-aspartyl-D-threonine (S)-α-ethylbenzylamide], the “Sweetness Potency” value turned out to be 1300.

The same data set, now with this note: sensory evaluation; running text.
As for `CC[C@@H](NC(=O)[C@@H](N)CC(=O)O)C(=O)N[C@@H](COC)c1ccccc1` [Example 16, α-L-aspartyl-D-α-aminobutyric acid (R)-α-methoxymethylbenzylamide], the sweetness potency value was 1200 times that of sugar.

In the case of `CC[C@H](NC(=O)C1(NC(=O)[C@@H](N)CC(=O)O)CCCCC1)c1ccccc1` [α-L-aspartyl-α-aminocyclohexanecarboxylic acid (S)-α-ethylbe], the sweetness potency value entry is given as “about 1000 times that of sugar”.

As for `CCOC[C@H](NC(=O)[C@H](NC(=O)[C@@H](N)CC(=O)O)C(C)C)c1ccccc1` [Example 15, α-L-aspartyl-D-valine (R)-α-ethoxymethylbenzylamide], the sweetness potency value was 500 times that of sugar.

On to `CC[C@H](NC(=O)C(C)(CC)NC(=O)[C@@H](N)CC(=O)O)c1ccccc1` (mixture of isomers) [Example 10, α-L-aspartyl-DL-isovaline (S)-α-ethylbenzylamide], for which the sweetness potency value is 100 times that of sugar.

For the molecule `COC[C@H](NC(=O)C(NC(=O)[C@@H](N)CC(=O)O)c1ccco1)c1ccccc1` (mixture of isomers) [α-L-aspartyl-DL-furylglycine (R)-α-methoxymethylbenzylamide], the sweetness potency value entry was “about 1200 times that of sugar”.

For the molecule `COC[C@H](NC(=O)[C@H](NC(=O)[C@@H](N)CC(=O)O)[C@H](C)O)c1ccccc1` [Example 2, α-L-aspartyl-D-threonine (R)-α-methoxymethylbenzylamide], the sweetness potency value is 500 times that of sugar.

In the case of `CC[C@H](NC(=O)C1(NC(=O)[C@@H](N)CC(=O)O)CCCC1)c1ccccc1` [α-L-aspartyl-α-aminocyclopentanecarboxylic acid (S)-α-ethylb], the sweetness potency value entry is recorded as “about 1000 times that of sugar”.

Regarding `COC[C@H](NC(=O)[C@H](NC(=O)[C@@H](N)CC(=O)O)C(C)C)c1ccccc1` [Example 11, α-L-aspartyl-D-valine (R)-α-methoxymethylbenzylamide], the sweetness potency value is listed as 1300 times that of sugar.

Regarding `COC[C@H](NC(=O)[C@H](NC(=O)[C@@H](N)CC(=O)O)c1ccccc1)c1ccccc1` [Example 12, α-L-aspartyl-D-phenylglycine (R)-α-methoxymethylbenzylamide], the sweetness potency value is on record as 500 times that of sugar.

Regarding `CC[C@H](NC(=O)C(NC(=O)[C@@H](N)CC(=O)O)c1ccco1)c1ccccc1` (mixture of isomers) [Example 4, α-L-aspartyl-DL-furylglycine (S)-α-ethylbenzylamide], the sweetness potency value is listed as 1200 times that of sugar.

With `COC[C@H](NC(=O)[C@H](NC(=O)[C@@H](N)CC(=O)O)C(C)C)c1ccccc1` [α-L-aspartyl-D-valine (R)-α-methoxymethylbenzylamide], the sweetness potency value entry was “about 1300 times that of sugar”.

With `COC[C@@H](NC(=O)[C@H](NC(=O)[C@@H](N)CC(=O)O)C(C)C)C(C)C` [Example 14, α-L-aspartyl-D-valine (S)-α-methoxymethyl-β-methylpropylamide], the sweetness potency value was 40 times that of sugar.

Consider `COC[C@H](NC(=O)C1(NC(=O)[C@@H](N)CC(=O)O)CCCCC1)c1ccccc1` [Example 13, α-L-aspartyl-α-aminocyclohexanecarboxylic acid (R)-α-methoxymethylbenzylamide], for which the sweetness potency value is 250 times that of sugar.

Turning to `CC[C@H](NC(=O)C1(NC(=O)[C@@H](N)CC(=O)O)CCCC1)c1ccccc1` [Example 6, α-L-aspartyl-α-aminocyclopentanecarboxylic acid (S)-α-ethylbenzylamide], the sweetness potency value is 1000 times that of sugar.

On to `COC[C@H](NC(=O)C(NC(=O)[C@@H](N)CC(=O)O)c1ccco1)c1ccccc1` (mixture of isomers) [Example 5, α-L-aspartyl-DL-furylglycine (R)-α-methoxymethylbenzylamide], for which the sweetness potency value was 1200 times that of sugar.

On to `CC[C@H](NC(=O)[C@H](NC(=O)[C@@H](N)CC(=O)O)[C@H](C)CC)c1ccccc1` [Example 3, α-L-aspartyl-D-isoleucine (S)-α-ethylbenzylamide], for which the sweetness potency value is 500 times that of sugar.

For `CC[C@@H](NC(=O)[C@@H](N)CC(=O)O)C(=O)N[C@@H](COC)c1ccccc1` [α-L-aspartyl-D-α-aminobutyric acid (R)-α-methoxymethylbenzyl], the sweetness potency value entry is listed as “about 1200 times that of sugar”.

As to `CC[C@H](NC(=O)C(CC)(CC)NC(=O)[C@@H](N)CC(=O)O)c1ccccc1` [Example 9, α-L-aspartyl-α,α-diethylglycine (S)-α-ethylbenzylamide], the sweetness potency value was 1000 times that of sugar.

Take `COC[C@H](NC(=O)[C@@H](C)NC(=O)[C@@H](N)CC(=O)O)c1ccccc1` [Example 18, α-L-aspartyl-D-alanine (R)-α-methoxymethylbenzylamide]: the sweetness potency value is 300 times that of sugar.

Regarding `CC[C@H](NC(=O)C1(NC(=O)[C@@H](N)CC(=O)O)CCCCC1)c1ccccc1` [Example 7, α-L-aspartyl-α-aminocyclohexanecarboxylic acid (S)-α-ethylbenzylamide], the sweetness potency value is reported as 1000 times that of sugar.

As for `CC[C@@H](C)[C@@H](NC(=O)[C@@H](N)CC(=O)O)C(=O)N[C@@H](COC)c1ccccc1` [Example 17, α-L-aspartyl-D-isoleucine (R)-α-methoxymethylbenzylamide], the sweetness potency value is 500 times that of sugar.

Regarding `COC[C@@H](NC(=O)[C@H](NC(=O)[C@@H](N)CC(=O)O)C(C)C)c1ccccc1` [Example 20, α-L-aspartyl-D-valine (S)-α-methoxymethylbenzylamide], the sweetness potency value result is on record as “not more than 20 times that of sugar”.

`COC[C@H](NC(=O)[C@H](NC(=O)[C@@H](N)CC(=O)O)C(C)C)C(C)C` [Example 19, α-L-aspartyl-D-valine (R)-α-methoxymethyl-β-methylpropylamide]: the sweetness potency value is listed as 30 times that of sugar.

On to `CC[C@H](NC(=O)[C@H](NC(=O)[C@@H](N)CC(=O)O)[C@H](C)O)c1ccccc1` [Example 1, α-L-aspartyl-D-threonine (S)-α-ethylbenzylamide], for which the sweetness potency value was 1300 times that of sugar.

The data set is the same for the next values; noted with them: sensory evaluation; running text; listed as α-L-aspartyl-D-threonine(S)-α-ethylbenzylamide.
For the molecule `CC[C@H](NC(=O)[C@H](NC(=O)[C@@H](N)CC(=O)O)[C@H](C)O)c1ccccc1` [Example 1, α-L-aspartyl-D-threonine (S)-α-ethylbenzylamide], the sweetness potency value entry is recorded as “about 1300 times that of sugar”.

The data set is the same for the next values; noted with them: sensory evaluation; running text; listed as α-L-aspartyl-DL-furylglycine(S)-α-ethylbenzylamide.
For `CC[C@H](NC(=O)C(NC(=O)[C@@H](N)CC(=O)O)c1ccco1)c1ccccc1` (mixture of isomers) [Example 4, α-L-aspartyl-DL-furylglycine (S)-α-ethylbenzylamide], the sweetness potency value result was “about 1200 times that of sugar”.

For the origin of these results see patent publication US5723165A, “Aspartyldipeptide derivatives and sweetener compositions containing the same” (Ajinomoto Co., Inc., priority 1994, dated 1998).
